Reference: patent US20040002130A1, “Disruption of PQS synthesis using precursor analogs” (priority 2002, published 2004)

Assays:
PQS production = assay: Effect of methyl anthranilate on PQS production (TLC of culture supernatant extracts, densitometry); assay type: cell-based, P. aeruginosa strain PAO1
Procedure: Bacteria from frozen stocks were grown overnight on PTSB agar plates (Ohman, et al. (1980) J. Bacteriol. 142:836-842) at 37° C. Isolated colonies were used to inoculate 10 ml of PTSB which was then incubated for 18 hr at 37° C. with vigorous shaking. Cultures were diluted 1:100 into fresh media and grown for 24 hr as above. A 400 μl aliquot of each culture was mixed with 800 μl of acidified ethyl acetate (Pesci, et al. (1999) Proc. Natl. Acad. Sci. USA 96:11229-11234), vortexed vigorously for 30 sec, then centrifuged for 10 min at 16,000×g. The organic phase was transferred to a fresh tube, and the aqueous phase was re-extracted with an additional 800 μl of solvent. The organic phases were combined, dried to completion and the solute was dissolved in 200 μl of a 1:1 mix of acidified ethyl acetate:acetonitrile. An amount of extract derived from 5 μl of culture was loaded onto the TLC plate. TLC was performed with a silica gel 60 F254 TLC plate (EM Science) that had been soaked in 5% KH2PO4 and activated at 100° C. for one hour. […]
P. aeruginosa strain PAO1 was grown in the presence of increasing amounts of methyl anthranilate, and culture supernatants were extracted with ethyl acetate and separated on TLC plates. PQS was visualized under long-wave UV light and photographed to quantify PQS densitometrically. […]

[1] = test system: P. aeruginosa strain PAO1; assay: Growth of cultures in the presence of methyl anthranilate; assay type: cell-based; settings: 0, 0.25, 0.5, 1.0, and 1.5 mM methyl anthranilate
Procedure: P. aeruginosa strain PAO1 was grown in the presence of increasing amounts of methyl anthranilate, and culture supernatants were extracted with ethyl acetate and separated on TLC plates. PQS was visualized under long-wave UV light and photographed to quantify PQS densitometrically. The amount of PQS present in the culture supernatant decreased as the concentration of methyl anthranilated increased, although the growth of the cultures was not affected by the presence of methyl anthranilate at the concentrations used in these experiments (0, 0.25, 0.5, 1.0, and 1.5 mM methyl anthranilate, with approximately 30% PQS being produced at 1.5 mM methyl anthranilate as compared to wild type bacateria).

Compound: COC(=O)c1ccccc1N [methyl anthranilate]
- PQS being produced as compared to wild type bacteria (PQS production; 1.5 mM methyl anthranilate, strain PAO1 culture supernatant, densitometry of TLC under long-wave UV): approximately 30%
- amount of PQS present in the culture supernatant (PQS production; increasing methyl anthranilate concentration (0, 0.25, 0.5, 1.0, and 1.5 mM), strain PAO1): decreased
- growth of the cultures [1]: not affected
